# Source: publication PMC10635799, “Analogs of FTY720 inhibit TRPM7 but not S1PRs and exert multimodal anti-inflammatory effects” (The Journal of General Physiology, 2023)
# Read-outs that look alike come from different tables or passages of the source.
# How the values were obtained:
# BMDMs = assay: LPS-induced inflammation assay in WT and TRPM7 KO BMDMs (qRT-PCR); type: cell-based, mice
# Protocol: All cells were cultured at 37°C with 5% CO2. HEK 293T cells (CRL-3216; ATCC), HeLa cells (CCL-2; ATCC), RAW 264.7 macrophages (TIB-71; ATCC), and BV-2 microglial cells (ABC-TC212S; AcceGen Biotech) were cultured in DMEM (11995065; Gibco) with 10% fetal bovine serum (FBS; Avantor Seradigm Premium Grade Fetal Bovine Serum 97068-085). FBS was heat-inactivated prior to use at 56°C for 30 min. BMDMs were isolated and cultured as previously described ([Schappe et al., 2018]) and differentiated into mature macrophages over 7 d through culture in BMDM media (RPMI 1640, 10% FBS, and 20% L-929 culture supernatant; Gibco).
# RAW 264.7 macrophages or BMDMs were seeded at a density of 250,000 cells per well into a 12-well tissue culture plate in 1 ml of media and left to incubate overnight. The indicated drug or vehicle control was added to each well, and the plate was agitated and left to incubate for 10 min. The cells were then treated with LPS (1 µg/ml) or an equivalent volume of PBS, agitated, and left to incubate for 3 h. Cells were washed with PBS and then RNA isolation was performed using RNeasy Plus Micro Kit (74134; Qiagen). cDNA was produced using GoScript Reverse Transcriptase (A5004; Promega) and a quantitative PCR was performed using SensiFast SYBR (98020; Bioline) and Bio-Rad CFX Connect thermocycler. Each datum represents an individual, biological replicate that is the mean of duplicate technical replicates. Fold-changes are all reported relative to untreated controls for each experiment and were calculated using the ∆∆Ct method, with β2-microglobulin used as the housekeeping gene for each sample. The experiment was performed similarly with BV-2 microglia and alveolar macrophages, except that cells were plated at a density of 100,000 cells per well into a 24-well tissue culture plate with 1 ml of media per well.
# [1] = Whole-blood, brain and lung drug levels by LC-MS/MS in the sublethal LPS peritonitis model; type: in vivo; conditions: for Kp at 4 h / concentration at 4 h: both sexes, C57BL/6J, mouse, intraperitoneal
# Protocol: 12-wk-old WT C57BL/6J mice were purchased from Jackson Laboratory (Strain #000664). An equal number of male and female mice were randomly assigned to each treatment group. All studies were conducted according to a protocol approved by the University of Virginia Animal Care and Use Committee. Mice were socially housed with littermate controls and provided with free access to a standard chow diet and water. Baseline weights were taken <1 h prior to the experiment for individual dose calculations. For the sublethal model, mice were injected intraperitoneally with LPS (1 mg/kg), VPC01091.4 (30 mg/kg), both LPS and VPC01091.4, or vehicle alone (20% 2-hydroxypropyl-β-cyclodextrin in PBS). The volume injected was 200 μl and solutions were sterile-filtered (0.45 µm) prior to use. […] Mice were euthanized at 4 h, then blood was collected via cardiac puncture and anticoagulated with K2EDTA. […] The lungs were dissected, coarsely homogenized, and partitioned into separate samples for RNA extraction and mass spectrometry analysis. Samples to be used for RNA were stored at −20°C in RNAlater Stabilization Solution (AM7021; Thermo Fisher Scientific) while samples for use in mass spectrometry were flash-frozen in liquid nitrogen. Whole brains were physically dissected, coarsely homogenized, and stored for later processing as with the lung tissue. 10 μl of each whole blood sample was reserved for mass spectrometry analysis, 15 μl was used to obtain lymphocyte counts with a Hematology Analyzer (Heska Element HT5), and the remainder was used to produce plasma through centrifugation at 2,000 × g for 15 min at 4°C. Plasma cytokines were then measured using a multiplex mouse proinflammatory cytokine panel performed by the University of Virginia Flow Cytometry Core (RRID: SCR_017829). Cytokine values beyond the limit of detection (LOD) are reported as the LOD value. Tissue RNA was isolated from preserved samples using 30 min of automated homogenization at 30 Hz with 5-mm ball-bearings in RLT Plus Lysis Buffer (TissueLyser II; Qiagen); RNA was then isolated using a RNeasy Plus Micro Kit (74134; Qiagen). Whole-tissue cytokine expression changes were then measured using qRT-PCR as with ex vivo cell culture experiments. For the lethal dose model, mice were injected with LPS (25 mg/kg), both LPS and VPC01091.4, or vehicle alone (20% 2-hydroxypropyl-β-cyclodextrin in PBS). Symptoms were scored according to a standardized clinical score sheet that assessed conjunctivitis, lethargy, degradation in hair grooming behavior, stool changes, and facial grimace (Table 1). Mice that lost >20% of their starting body weight or received a clinical score of 8 or greater were euthanized.
# The sample preparation method was adapted from that published by [Shaner et al. (2009)]. Specifically, homogenized tissue (100 μl) was added to a mixture of methanol and chloroform (2 ml, 3:1, LCMS grade) and incubated at 48°C for 16 h. The mixture was cooled to room temperature, an alcoholic KOH solution (200 μl, 1 M in LCMS-grade methanol) was added, and the mixture was further incubated at 37°C for 2 h. The samples were neutralized with glacial acetic acid (20 μl) and centrifuged at 4°C for 10 min at 10,000 × g. The supernatant fluid was transferred to a glass vial and dried under a stream of nitrogen. The material was dissolved in LCMS grade methanol (500 μl), vortexed, and centrifuged at 4°C for 10 min at 10,000 × g. The supernatant fluid was transferred to LC vials for analysis by LC-MS/MS.
# Analyses were performed using a tandem quadrupole mass spectrometer (Xevo TQ-S micro; Waters) coupled to a UPLC (Waters Acquity h-class+) inlet equipped with a reverse phase C18 UPLC column (BEH C-18 1.7 µm bead size, 2.1 × 50 mm; Waters). The method used is a modification of that published by [Frej et al. (2015)]. Specifically, the LC flow rate was set at 0.4 ml/min and the column temperature was 60°C. […]
# lymphocytes = test system: lymphocytes; design: method as in Brinkmann et al., 2002; Zhu et al., 2007; conditions: ref Brinkmann et al., 2002; Zhu et al., 2007; cited from earlier work
smiles,measurement,setting,value
"CCCCCCCCc1ccc([C@@H]2CC[C@@](N)(CO)C2)cc1 [VPC01091.4, ((1S,3R)-1-amino-3-(4-octylphenyl)cyclopentyl)methanol]",LPS-induced IL-1β expression in TRPM7 KO BMDMs,"BMDMs; 10 µM VPC4, 10 µM AAL-149, 5 µM FTY720, 30 μM NS8593",able to suppress
same,LPS-induced IL-6 expression in Trpm7 KO BMDMs,"BMDMs; 10 µM, effect on top of genetic deletion",additive effect
same,Kp at 4 h,"[1]; brain / whole blood, 30 mg/kg i.p., VPC4 + LPS group, read-out: Mean brain level relative to mean blood level",9.35
same,Kp at 4 h,"[1]; brain / whole blood, 30 mg/kg, 30 mg/kg i.p., VPC4 group, read-out: Mean brain level relative to mean blood level",8.97
same,concentration at 4 h,"[1]; brain, 30 mg/kg i.p., VPC4 + LPS group, read-out: Mean brain concentration",162 µM
same,concentration at 4 h,"[1]; brain, 30 mg/kg i.p., VPC4 group, read-out: Mean brain concentration",142 µM
same,Kp at 4 h,"[1]; lung / whole blood, 30 mg/kg i.p., VPC4 + LPS group, read-out: Mean lung level relative to mean blood level",33.2
same,Kp at 4 h,"[1]; lung / whole blood, 30 mg/kg, 30 mg/kg i.p., VPC4 group, read-out: Mean lung level relative to mean blood level",31.1
same,Kp at 4 h,"[1]; lung / whole blood, 30 mg/kg, mice that received VPC4, 30 mg/kg i.p., read-out: Lung levels relative to blood",32
same,concentration at 4 h,"[1]; lung, 30 mg/kg i.p., VPC4 + LPS group, read-out: Mean lung concentration",576 µM
same,concentration at 4 h,"[1]; lung, 30 mg/kg i.p., VPC4 group, read-out: Mean lung concentration",490 µM
same,concentration at 4 h,"[1]; whole blood, 30 mg/kg i.p. with LPS 1 mg/kg, cotreatment group, read-out: Mean whole blood concentration",17.4 µM
same,concentration at 4 h,"[1]; whole blood, 30 mg/kg i.p., drug-treated group, read-out: Mean whole blood concentration",15.8 µM
same,Brain levels relative to blood,"[1]; mice that received VPC4, 30 mg/kg i.p., 4 h",approximately ninefold
same,Lymphopenia when administered to mice,lymphocytes,do not evoke lymphopenia
